Measured values reported in US9766227B2, “Screening method for substance having hemocyte maturation acceleration action” (Bloom Technology Co., Ltd., priority 2010, dated 2017).
Where two headings read alike, the source gives them in different places.

Assays:
[1] = system: K562 cells; experiment: Expression pattern of RGS proteins in hemin-stimulated K562 cell maturation, Western blotting; assay type: cell-based; conditions: 30 μM hemin, days 3, 6, 9 and 12
Procedure: K562 cells (5×10^6 cells/10 mL) were cultured by adding 4.5 g glucose/30 μM hemin to a DMEM solvent, and 2.5 mL of the same solvent was added at 3-day intervals. Cells were collected on days 3, 6, 9, and 12, and were dissolved in 100 μL of SDS Loading Buffer (6 M Urea). 10 μL were run on a 12% SDS-GEL, and after transferring to a blotting membrane, this was reacted with respective antibodies to the R4 RGS family (herein RGS1/RGS3/RGS16/RGS18) and another RGS family (herein, RGS14).

[2] = system: K562 cells; conditions: 0.125 mM, with 30 μM hemin
From the text: Cells were collected on days 0, 3, 6, 12, and 15, and the ability to assist induction of erythrocyte differentiation was examined using cell surface markers, glycophorin A (CD235a) and transferrin receptor (CD71), as indicators.
CD235(+/−)/CD71(++) represent K562 proerythroblast-like cells, CD235(+)/CD71(++) represent K562 basophilic erythroblast-like cells, CD235(+)/CD71(+) represent K562 polychromatic erythroblast-like cells, and CD235(+)/CD71(+/−) represent K562 orthochromatic erythroblast-like cells or reticulocytes. K562 cells are CD71-non-positive cells positioned upstream of pro-erythroblasts.
(§1) Using the same system that uses K562 cells for evaluating induction of differentiation, CD235/CD71 which are the existing indicators for induction of erythrocyte differentiation, and the new indicators lactoferrin (Lf)/C5a receptor (CD88) were compared and examined. Cells were collected on days 0, 3, 6, 12, and 15, and the ability to induce differentiation into erythrocytes was examined using Lf/CD88 as the indicators.
as §1, with “FAS ligand (CD178)/C5a” for “lactoferrin (Lf)/C5a”, “CD178/CD88” for “Lf/CD88”, “indicator.” for “indicators.”

## hemin
[1]
  expression of RGS14: did not change
  expression of the R4 RGS family (RGS1/RGS3/RGS16/RGS18): increased

## manganese chloride
[2]; markers CD178/CD88
  induction of differentiation after erythroblast formation: inhibited
  number of days taken for maturation to form erythroblasts: reduced
[2]; markers CD235/CD71
  induction of differentiation after erythroblast formation: inhibited
  number of days taken for maturation until erythroblast formation: reduced
[2]; markers Lf/CD88
  induction of differentiation after erythroblast formation: inhibited
  number of days taken for maturation until erythroblast formation: reduced
